Assay results published in a melting point compilation (Tetko et al.; mined from patent text by program, amines drawn as free bases though some values may be those of a salt).

Compound | melting point [°C]
O=C(NCCCCCCOC(=O)N1CCC2(CCCC2)CC1)OC1CCN(C(=O)Oc2ccc([N+](=O)[O-])cc2)CC1 | 113 to 114
CC(C)OC(=O)Nc1cc(-c2ccnc3c(C(=O)c4cccs4)cnn23)ccc1N(C)C | 164 to 165
N#Cc1cc(Br)cc2ccc(O)c(Cl)c12 | 148 to 150
CCO[C@@H](Cc1ccc(OCCN2CCC(C)(C)c3cc(C(=NOC)c4ccc(C(=O)O)cc4)ccc32)cc1)C(=O)O | 83 to 85
CCC#CCCOc1ccc(C=O)cc1OC | 80 to 81
O=C(O)C(=O)c1ccoc1 | 94.2
COc1cccc(C(=O)c2cccc(C(=O)O)c2)c1 | 160
COc1cc(COc2cc(/C=C/c3cscn3)n(-c3ccccc3)n2)ccc1OCc1nc(-c2ccco2)oc1C | 154 to 155
O=C(O)[C@H](CC1CC1)N1C(=O)NC(C(F)(F)F)(C(F)(F)F)C1=O | 123 to 125
N#Cc1ccc(Cn2cncc2CCOc2ccc3c(c2CCc2ccccc2)CCCC3=O)cc1 | 179 to 180
N#Cc1ccc(N(Cc2ccc(O)cc2)n2cnnc2)cc1 | 228 to 230
O=C(Cc1cccc2ccccc12)Nc1cc([C@H]2C[C@@H](NC(=O)CC3CC3)C2)[nH]n1 | 93.2
COc1c(OC(C)=O)ccc2cc[nH]c12 | 241 to 244
CC(C)Cc1ncn(C(C)C(O)(Cc2nc[nH]n2)c2ccc(Cl)cc2)n1 (configuration not stated) | 140 to 141
CC(C)N(CCOc1ccc(CC2SC(=O)NC2=O)cc1)C(C)C (configuration not stated) | 134 to 135
CC(C)(C)NS(=O)(=O)c1sc([Si](C)(C)C)cc1C(F)=C(F)C(F)(F)F | 92 to 94
CCOC(=O)/C=C/c1cn(Cc2cc(OCc3ccccc3)cc(OCc3ccccc3)c2)cc1-c1ccccc1 | 98 to 99
CC(=O)OCC(=O)Nc1cccc(N2CCOCC2)c1C#N | 131 to 132
O=C1CCC(CCC(=O)OCc2ccc(C(F)(F)F)cc2)N1 (configuration not stated) | 81 to 82
CO/N=C(/C(N)=O)c1ccccc1COC(C)=O | 121 to 123
CCOC(=O)c1ccnnc1NC(=O)Cc1c(F)cc(F)cc1F | 135
Cn1cc(C(=O)NCc2ccc(Cl)cc2)c(=O)c2cc(CN3CCOCC3)cc(C#Cc3ccccn3)c21 | 234 to 236
O=c1[nH][nH]c(=O)c2c(O)c3ccc([N+](=O)[O-])cc3nc12 | > 400
COC(=O)C1=C(O)C(=O)O[C@@H]1C | 94 to 96

Compound | melting point [°C]
CCCCCOc1cc(C=Cc2nc3c(s2)NCCCC3)ccc1OC | 124 to 125
CCCCOc1cc(I)c(OCCCC)cc1I | 86 to 87.5
COc1cc(Nc2nccc(-c3ccc(N4CCCNCC4)nc3)n2)cc(OC)c1OC | 144 to 145
COc1cc2c(cc1-c1c(C)nn(C)c1C)-c1c(-c3cccs3)c3c(n1CC2)C(=O)N(C(C)C)CCN(C(C)=O)C3 | 178 to 180
Cc1cc(C2CCN(S(=O)(=O)C3(C(=O)NO)CCOCC3)CC2)ccc1-c1cccc(OC[C@H](O)CO)c1 | 141 to 145
O=c1c(CO)cc(-c2ccc3c(c2)CCO3)nn1CC=Cc1ccc(Cl)cc1 | 131 to 141
CCCCNC(=O)Oc1ccc(Oc2ccc([N+](=O)[O-])cc2)cc1 | 122 to 124
CC(C)(C)C1COC1(Cn1cncn1)c1ccc(F)cc1 (configuration not stated) | 128
CSc1cc(C(F)(F)F)cc(Cl)c1-n1c(Br)nc(Cl)c1S(=O)(=O)C(F)F | 116
COc1cc(N)c(Br)cc1C(=O)NC1CCN(CC2CCN(C(N)=O)CC2)CC1 | 228 to 230
CSCCSC1=C(O)CC(C)(C)CC1=O | 57 to 59
O=[N+]([O-])c1ccc(CNc2cccc(S(=O)(=O)O)c2)cc1 | > 275
CN1CCC(O)(C(c2cc(Cl)ccc2F)n2cccc2)CC1 (configuration not stated) | 124 to 125
CCCCCCCNC(=O)Nc1ccc(O)cc1C(=O)NCCC(c1ccccc1)c1ccccc1 | 161 to 162
O=Cc1ccc(CO)cc1 | 44.5 to 46
COc1cc(C(=O)c2c(C)c(C(=O)O)c3ccccn23)ccc1[N+](=O)[O-] | 215
CSc1ncc(C(=O)Cc2c(Cl)cncc2Cl)cc1OC(C)C | 124 to 125
COc1ccc(OC)c(C(=O)c2ccc(OCc3ccccc3)cc2)c1 | 111 to 113
Cc1nnc(-c2ccc3occ(-c4ccc(S(=O)C(F)(F)F)cc4)c3c2)o1 (configuration not stated) | 183 to 184
CCCCNc1nc(N(CCCC)C2CC(C)(C)N(OC3CCCCC3)C(C)(C)C2)nc(N(CCCC)C2CC(C)(C)N(OC3CCCCC3)C(C)(C)C2)n1 | 80 to 86
CCCNCCc1ccc(NS(=O)(=O)c2ccc(Cl)cc2Cl)cc1 | 165 to 168
CC1(C)COc2ccc(C[C@@H](NC(=O)c3cccc4c(Cl)cccc34)[C@@H](O)c3cccc(Cl)c3)cc21 (racemic) | 191 to 192
OC[C@H]1CCCN1c1nc2c(-c3nc(C4CC4)no3)ncn2c2cccc(Cl)c12 | 220 to 221
COc1ccnc(CO)c1Cl | 103 to 105

Compound | melting point [°C]
COC(CCCNC(=O)C1CCC(C(=O)NCCCC(OC)OC)CC1)OC (configuration not stated) | 191 to 195
CC(C)c1ccc(C2(O)C(=O)c3ccccc3C2=O)c(OC(=O)C=Cc2ccccc2)c1 | 95 to 97
Cc1c(Cl)cc([N+](=O)[O-])c(NC(C)C)c1[N+](=O)[O-] | 69 to 73
CCOCc1nc2c(N)nc3cccnc3c2n1CCCCS(=O)(=O)NC | 148 to 150
CCCCc1nc2c(N)nc3ccc(OCC(=O)N(CC)CC)cc3c2n1C | 186 to 188
Cc1nc2cc3c(cc2[nH]1)C(C)(C)CC(=O)N3 | 290 to 294
CCCCCCc1c(C(C)C)nc(C(C)C)c(C(C)O)c1-c1ccc(F)cc1 (configuration not stated) | 75 to 77
CCc1ccc(NC2=CC3=NCN(C)C3=CC2(F)C(=O)OC)c(F)c1 (configuration not stated) | 238
COC(=O)C(c1ccc(N)cc1)C1CC1 (configuration not stated) | 68 to 69
OC1C=CC2COC1O2 (configuration not stated) | 65.6 to 66.4
CCOP(=O)(OCC)C(c1ccccc1)c1ccccc1C(F)(F)F (configuration not stated) | 127 to 130
COCC(=O)COc1c([N+](=O)[O-])ccc(F)c1F | 39 to 42
CCOC(=O)C(CCC#N)(C(=O)OCC)c1ncc([N+](=O)[O-])cc1C | 64 to 65.5
COC(C)(C)C(=NO)n1ccnc1 | 155 to 160
CCCCOC(=O)CS(=O)(=O)CC=C1SC=CS1 | 99 to 100
CCCCCCCCCCCCCCc1ccc(O)cc1 | 70 to 71
O=C(O)Cn1c(=O)c(-c2ccccc2Cl)cc2cnc(NC3C4CN(Cc5ccccc5)CC43)nc21 (configuration not stated) | 159 to 163
O=C(O)CN1C(=O)C(=Cc2ccc(CO)o2)SC1=S | 206 to 209
COc1ccc2c(c1)C13CCN(C)C(C2)C1(O)CCOC3 (single isomer, unassigned; (+)) | 108 to 110
COc1cc(Nc2c(C#N)cnc3cc(/C=C/CCN(C)C)c(OC)cc23)c(Cl)cc1Cl | 119 to 121
Clc1cccc(N2CCN(CCCOc3ccc4scnc4c3)CC2)c1Cl | 127 to 129
COC1=Cc2c(c(=O)[nH]c3ccc(OC)cc23)[C@@H](C)C1 | 153 to 157
COCCc1nc2c(N)nc3cc(OCc4cccc([N+](=O)[O-])c4)ccc3c2n1CC(C)(C)O | 125 to 127

Now from value to molecule:

melting point [°C] | Compound
161 to 164 | COc1cc(OC)nc(NC(=O)NS(=O)(=O)Oc2ccccc2-c2nnco2)n1
69 to 70 | CC(=O)c1cncn1C1c2ccccc2CC1(C)C (configuration not stated)
210 to 211 | Cc1csc(-c2nc(=O)c3ccccc3s2)n1
196 to 198 | Cc1cccc2c1C(=O)c1c-2csc1N
183 to 186 | CC(C)CN1C(=O)[C@H](CC(=O)O)O[C@@H](c2ccccc2Cl)c2cc(Cl)ccc21
125 to 127 | CCCC(=O)c1cnc2c(OCCO)cccc2c1Nc1ccccc1C
170 to 171 | CCn1ncc2nc(C(=O)N3CCN(C)CC3)c(-c3ccccc3)nc21
52 to 54.5 | N#CCSc1c[nH]c2ccccc12
88 | CCOC(=O)C1=C(N(C)C)N=C(C)C(C(=O)OCC)C1c1ccccc1C (configuration not stated)
163 | O=C(c1cc2ccccc2o1)c1ccc(O)c(Cl)c1Cl
152 to 153 | O=C(c1cccnc1)c1cnc2c(cnn2Cc2ccco2)c1O
53 to 54 | CC(C)c1ccc2c(c1)C(=O)c1ccccc1C2=O
188 to 189 | NC(=O)NNC1=NC=Cc2ccccc2C1
227 to 228 | Cc1ccccc1-n1c(-c2sc(Nc3ccccc3)nc2C)nc2ccccc2c1=O
51 to 52 | CCOC(=O)c1c(C(C)C)c2ccccn2c1-c1ccc(F)cc1
136 to 138 | CC(C)N(CCCCOCC(=O)O)c1nc(-c2ccccc2)c(-c2ccccc2)nc1Cl

melting point [°C] | Compound
265 | Cn1c2ccccc2c(=O)n2nc(C(=O)O)cc12
152 to 155 | COC(=O)c1cc(Cl)c(Oc2ccc(O)cc2)c(Cl)c1
171 to 172 | O=C(CCc1ccccc1)Nc1cc(-c2nnc(CCc3cccc(F)c3)o2)ccn1
244 to 246 | CCC1CCn2c(nc(-c3ccncc3)cc2=O)N1 (configuration not stated)
143 | Cc1ccc(NC(=S)NC(=O)c2ccccc2)c(Cl)c1
257 | Cc1cc(-c2ncn3c(C(F)(F)F)cc(-c4ccc(C(F)(F)F)cc4)nc23)ccn1
206 | Nc1ccc2ccc(Oc3ccccc3F)nc2n1
180 to 182 | OCCc1c2ccccc2c(Br)c2ccccc12
84 to 85 | COc1ccc(Br)c2ccc(C(F)(F)F)nc12
300 to 302 | Nc1nc(N)c2cc(S(=O)(=O)c3ccc4ccccc4c3)ccc2n1
> 230 | O=C1Nc2ccccc2C12COc1cc3c(cc12)CCCC3 (configuration not stated)
187 to 188 | CCOC(=O)Cc1sc(NC(C)=O)nc1-c1ccc(Cl)cc1
147 to 148 | Cn1cc(-c2ccccc2)c(=O)c(-c2cccs2)c1
135 to 137 | C=C(C)COc1ccc(C(=O)C=Cc2c(Cl)cccc2Cl)c2oc3ccccc3c(=O)c12
128 to 130 | Fc1ccc(-n2nc(-c3nc(-c4ccccc4)cs3)c3c2C2CCC3C2)c(F)c1 (configuration not stated)
